Reference: DBAASP
≈ marks a conversion by molar mass, not a printed value. Values belong to the molecule of their own block, whether it stands above or below them.

What was measured:
Experiment in all cases: ≥ marks a high value that may be exact or a test limit, other limits are often not marked, values filed in µg/mL are converted to µM
[1] = test system: Pseudomonas aeruginosa ATCC 27853
[2] = test system: Escherichia coli ATCC 25922
[3] = test system: Staphylococcus aureus ATCC 43300
[4] = test system: Bordetella bronchiseptica CUN 11844-99
[5] = test system: Pseudomonas aeruginosa CUN 4158-02
[6] = test system: Stenotrophomonas maltophilia CUN 3998-00
[7] = test system: Staphylococcus aureus ATCC 25923
[8] = test system: Staphylococcus aureus CUN 3792-99
[9] = test system: Acinetobacter baumannii ATCC 19606
[10] = test system: Escherichia coli JCM 1649
[11] = test system: Staphylococcus aureus IAM 1011
Salmonella typhimurium = test system: Salmonella typhimurium
[12] = test system: Shewanella putrefaciens IAM 1509
[13] = test system: Aeromonas salmonicida NCIMB 1102
[14] = test system: Bacillus subtilis IAM 1026
[15] = test system: Vibrio parahaemolyticus Vp+1
[16] = test system: Photobacterium damselae subsp. piscicida Sp 9587
[17] = test system: Vibrio anguillarum NCIMB 829
[18] = test system: Micrococcus luteus CCM 144
Escherichia coli B = test system: Escherichia coli B
Bacillus subtilis 168 = test system: Bacillus subtilis 168
Pseudomonas aeruginosa = test system: Pseudomonas aeruginosa
[19] = test system: Candida albicans F7-39/IDE99
Staphylococcus aureus = test system: Staphylococcus aureus

MIC [1]: 93 µM (≈ 256 µg/mL)
MIC [2]: 23.2 µM (≈ 64 µg/mL)
MIC [3]: 23.2 µM (≈ 64 µg/mL)
MIC [4]: 1.45 µM (≈ 4 µg/mL)
MIC [5]: ≥ 93 µM
MIC [6]: ≥ 186 µM
MIC [7]: 11.6 µM (≈ 32 µg/mL)
MIC [8]: ≥ 372 µM
MIC [9]: 23.2 µM (≈ 64 µg/mL)
SMILES: CC(C)C[C@H](NC(=O)[C@H](CCCN=C(N)N)NC(=O)[C@H](CCCN=C(N)N)NC(=O)[C@H](Cc1ccccc1)NC(=O)[C@H](CCCCN)NC(=O)[C@H](CCCCN)NC(=O)[C@H](CS)NC(=O)CN)C(=O)N[C@@H](CCCCN)C(=O)N[C@@H](Cc1c[nH]c2ccccc12)C(=O)N[C@@H](CCCCN)C(=O)N[C@@H](Cc1ccc(O)cc1)C(=O)N[C@@H](CCCCN)C(=O)NCC(=O)N[C@@H](CCCCN)C(=O)N[C@@H](Cc1ccccc1)C(=O)N[C@@H](Cc1c[nH]c2ccccc12)C(=O)N[C@@H](Cc1ccccc1)C(=O)N[C@@H](Cc1c[nH]c2ccccc12)C(=O)N[C@@H](CS)C(=O)NCC(N)=O [GCKKFRRLKWKYKGKFWFWCG]

MIC [10]: 8.94 µM (≈ 12.5 µg/mL)
MIC [11]: 4.47 µM (≈ 6.25 µg/mL)
MIC (Salmonella typhimurium): 8.94 µM (≈ 12.5 µg/mL)
MIC [12]: 2.24 µM (≈ 3.13 µg/mL)
MIC [13]: 17.9 µM (≈ 25 µg/mL)
MIC [14]: 4.47 µM (≈ 6.25 µg/mL)
MIC [16]: 4.47 µM (≈ 6.25 µg/mL)
MIC [17]: 4.47 µM (≈ 6.25 µg/mL)
SMILES: CC[C@H](C)[C@H](N)C(=O)NCC(=O)NCC(=O)N[C@H](C(=O)N[C@H](C(=O)N[C@@H](CO)C(=O)N[C@@H](Cc1ccccc1)C(=O)N[C@@H](Cc1ccccc1)C(=O)N[C@@H](CCCCN)C(=O)N[C@@H](CCCN=C(N)N)C(=O)N[C@@H](CC(C)C)C(=O)N[C@@H](Cc1ccccc1)C(=O)O)[C@@H](C)CC)[C@@H](C)CC [IGGIISFFKRLF]
MIC [15]: 8.94 µM (≈ 12.5 µg/mL)

MIC [18]: 9 µM (≈ 12.8 µg/mL)
MIC (Escherichia coli B): 17.1 µM (≈ 24.3 µg/mL)
MIC (Bacillus subtilis 168): 5.8 µM (≈ 8.23 µg/mL)
MIC (Pseudomonas aeruginosa): 83.3 µM (≈ 118 µg/mL)
MIC [19]: 9.8 µM (≈ 13.9 µg/mL)
MIC (Staphylococcus aureus): 100 µM (≈ 142 µg/mL)
SMILES: CC[C@H](C)[C@H](NC(=O)[C@H](C)NC(=O)CNC(=O)[C@H](Cc1c[nH]c2ccccc12)NC(=O)[C@H](CC(N)=O)NC(=O)[C@@H](N)CCCCN)C(=O)N[C@@H](CC(C)C)C(=O)N[C@@H](CCCCN)C(=O)N[C@@H](Cc1cnc[nH]1)C(=O)N[C@H](C(=O)N[C@H](C(=O)N[C@@H](CCCCN)C(N)=O)[C@@H](C)CC)[C@@H](C)CC [KNWGAILKHIIK]
